The values that follow come from ChEMBL document CHEMBL3421589, “Regioselective chemical and rapid enzymatic synthesis of a novel redox – Antiproliferative molecular hybrid” (Eur J Med Chem, 2015).

Calls of active or inactive are those of the source. The calls are words filed in the database; no cut-off is given here.

Assay [1] concerns MRC5. Put plainly: Cytotoxicity against human MRC5 cells after 48 hrs by SRB assay. The class given is functional, cell-based. As to conditions: for IC50: MRC5, 48 h. (In general: The SRB assay estimates cell density from bound dye.)
For assay [2], the system named is T-24. Put plainly: Ratio of Gemcitabine IC50 to Compound IC50 for human T24 cells after 48 hrs by SRB assay. In kind it is functional.
A short description of assay [3]: (§1) Cytotoxicity against human T24 cells after 48 hrs by SRB assay. In kind it is functional, cell-based. As to conditions: T-24, 48 h.
Assay [4] concerns T-24. The assay is described as §1. The class given is functional, cell-based.
The test system of assay [5] is MRC5. Put plainly: Ratio of Gemcitabine IC50 to Compound IC50 for human MRC5 cells after 48 hrs by SRB assay. The class given is functional.
Assay [6] relates to A549. Put plainly: Induction of H2O2 level in human A549 cells at 1 uM after 30 mins by flow cytometry. In kind it is functional, cell-based.
For assay [7], the system named is A549. Put plainly: Cytotoxicity against human A549 cells after 48 hrs by SRB assay. The class given is functional, cell-based. As to conditions: for IC50: A549, 48 h.
Assay [8] has as its system A549. The assay can be described thus: Ratio of Gemcitabine IC50 to Compound IC50 for human A549 cells after 48 hrs by SRB assay. The class given is functional.
In assay [9] the test system is A549. The assay can be described thus: Cytotoxicity against human A549 cells treated at LA + compound sequent. compound for 24 hrs, LA + compound for 24 hrs additional, total 48 hrs 2:1 and 5:1 alpha-lipoic acid to compound ratio after 48 hrs by SRB assay in presence of alpha-lipoic acid. In kind it is functional, cell-based.
Assay [10] concerns A549. The assay can be described thus: Cytotoxicity against human A549 cells assessed as dose reduction index ratio treated at sequential combination at 5:1 alpha-lipoic acid to compound ratio after 48 hrs by SRB assay in presence of alpha-lipoic acid. In kind it is functional.
Assay [11] concerns A549. The assay can be described thus: Cytotoxicity against human A549 cells assessed as dose reduction index ratio treated at simultaneous combination at 5:1 alpha-lipoic acid to compound ratio after 48 hrs by SRB assay in presence of alpha-lipoic acid. In kind it is functional.
Assay [12] concerns A549. The assay can be described thus: Cytotoxicity against human A549 cells assessed as dose reduction index ratio treated at sequential combination at 2:1 alpha-lipoic acid to compound ratio after 48 hrs by SRB assay in presence of alpha-lipoic acid. The class given is functional.
Assay [13] deals with MRC5. Put plainly: Cytotoxicity against human MRC5 cells assessed as dose reduction index ratio treated at sequential combination at 5:1 alpha-lipoic acid to compound ratio after 48 hrs by SRB assay in presence of alpha-lipoic acid. The class given is functional.
For assay [14], the system named is MRC5. Put plainly: Cytotoxicity against human MRC5 cells treated at LA + compound sequent. LA for 24 hrs), LA + GEM (24 hrs additional, total 48 hrs) 5:1 alpha-lipoic acid to compound ratio after 48 hrs by SRB assay in presence of alpha-lipoic acid. The class given is functional, cell-based.
The test system of assay [15] is A549. Put plainly: Cytotoxicity against human A549 cells treated at LA + compound sequent. LA for 24 hrs), LA + GEM (24 hrs additional, total 48 hrs) 2:1 alpha-lipoic acid to compound ratio after 48 hrs by SRB assay in presence of alpha-lipoic acid. The class given is functional, cell-based.
Assay [16] is described as follows: Cytotoxicity against human T24 cells treated at LA + compound sequent. compound for 24 hrs, LA + compound for 24 hrs additional, total 48 hrs 2:1 and 5:1 alpha-lipoic acid to compound ratio after 48 hrs by SRB assay in presence of alpha-lipoic acid. In kind it is functional, cell-based. As to conditions: T-24.
Assay [17] deals with MRC5. Put plainly: Cytotoxicity against human MRC5 cells assessed as dose reduction index ratio treated at sequential combination at 2:1 alpha-lipoic acid to compound ratio after 48 hrs by SRB assay in presence of alpha-lipoic acid. In kind it is functional.
For assay [18], the system named is MRC5. The assay can be described thus: Cytotoxicity against human MRC5 cells treated at LA + compound sequent. compound for 24 hrs, LA + compound for 24 hrs additional, total 48 hrs 2:1 and 5:1 alpha-lipoic acid to compound ratio after 48 hrs by SRB assay in presence of alpha-lipoic acid. In kind it is functional, cell-based.
Assay [19] has as its system A549. Put plainly: Induction of H2O2 level in human A549 cells at 1 uM after 5 to 30 mins by flow cytometry. The class given is functional, cell-based. On the technique in general: A flow cytometer gives signals particle by particle.
The subject of assay [20] is A549. Put plainly: Cytotoxicity against human A549 cells assessed as combination index treated at 2:1 alpha-lipoic acid to compound ratio after 48 hrs by SRB assay in presence of alpha-lipoic acid. The class given is functional.
Assay [21] has as its system MRC5. Put plainly: Cytotoxicity against human MRC5 cells treated at LA + compound sequent. LA for 24 hrs), LA + GEM (24 hrs additional, total 48 hrs) 2:1 alpha-lipoic acid to compound ratio after 48 hrs by SRB assay in presence of alpha-lipoic acid. The class given is functional, cell-based.
Assay [22] in a line: Cytotoxicity against human T24 cells treated at LA + compound sequent. LA for 24 hrs), LA + GEM (24 hrs additional, total 48 hrs) 5:1 alpha-lipoic acid to compound ratio after 48 hrs by SRB assay in presence of alpha-lipoic acid. In kind it is functional, cell-based. As to conditions: T-24.
Assay [23] relates to A549. The assay can be described thus: Cytotoxicity against human A549 cells assessed as dose reduction index ratio treated at simultaneous combination at 0.6 fraction inhibition after 48 hrs by SRB assay in presence of alpha-lipoic acid. The class given is functional.
Assay [24] concerns A549. Put plainly: Cytotoxicity against human A549 cells assessed as inhibition fraction treated at 5:1 alpha-lipoic acid to compound ratio after 48 hrs by SRB assay in presence of alpha-lipoic acid. The class given is functional.
Assay [25] relates to A549. Put plainly: Cytotoxicity against human A549 cells assessed as combination index treated at 5:1 alpha-lipoic acid to compound ratio after 48 hrs by SRB assay in presence of alpha-lipoic acid. The class given is functional.
Assay [26] deals with A549. The assay can be described thus: Cytotoxicity against human A549 cells assessed as inhibition fraction treated at sequential combination LA + compound sequent. compound for 24 hrs, LA + compound for 24 hrs additional, total 48 hrs 2:1 and 5:1 alpha-lipoic acid to compound ratio after 48 hrs by SRB assay in presence of alpha-lipoic acid. The class given is functional.

Assay [27] relates to MRC5. Put plainly: Cytotoxicity against human MRC5 cells assessed as dose reduction index ratio treated at simultaneous combination at 5:1 alpha-lipoic acid to compound ratio after 48 hrs by SRB assay in presence of alpha-lipoic acid. The class given is functional.
For assay [28], the system named is A549. The assay can be described thus: Cytotoxicity against human A549 cells treated at LA + compound sequent. LA for 24 hrs), LA + GEM (24 hrs additional, total 48 hrs) 5:1 alpha-lipoic acid to compound ratio after 48 hrs by SRB assay in presence of alpha-lipoic acid. In kind it is functional, cell-based.
In assay [29] the test system is A549. Put plainly: Cytotoxicity against human A549 cells treated at 2:1 and 5:1 alpha-lipoic acid to compound ratio after 48 hrs by SRB assay in presence of alpha-lipoic acid. The class given is functional, cell-based. As to conditions: A549, 48 h.
Assay [30] deals with MRC5. The assay can be described thus: Cytotoxicity against human MRC5 cells assessed as dose reduction index ratio treated at simultaneous combination at 2:1 alpha-lipoic acid to compound ratio after 48 hrs by SRB assay in presence of alpha-lipoic acid. The class given is functional.
In assay [31] the test system is A549. The assay can be described thus: Cytotoxicity against human A549 cells assessed as inhibition fraction treated at 2:1 alpha-lipoic acid to compound ratio after 48 hrs by SRB assay in presence of alpha-lipoic acid. In kind it is functional.
Assay [32] can be described thus: Cytotoxicity against human T24 cells treated at LA + compound sequent. LA for 24 hrs), LA + GEM (24 hrs additional, total 48 hrs) 2:1 alpha-lipoic acid to compound ratio after 48 hrs by SRB assay in presence of alpha-lipoic acid. In kind it is functional, cell-based. As to conditions: T-24.
For assay [33], the system named is MRC5. The assay can be described thus: Cytotoxicity against human MRC5 cells treated at 2:1 and 5:1 alpha-lipoic acid to compound ratio after 48 hrs by SRB assay in presence of alpha-lipoic acid. As to conditions: MRC5, 48 h. In kind it is functional, cell-based.
Assay [34] has as its system A549. Put plainly: Cytotoxicity against human A549 cells assessed as combination index treated at sequential combination LA + compound sequent. compound for 24 hrs, LA + compound for 24 hrs additional, total 48 hrs 2:1 and 5:1 alpha-lipoic acid to compound ratio after 48 hrs by SRB assay in presence of alpha-lipoic acid. In kind it is functional.
Assay [35] can be described thus: Cytotoxicity against human T24 cells treated at 2:1 and 5:1 alpha-lipoic acid to compound ratio after 48 hrs by SRB assay in presence of alpha-lipoic acid. The class given is functional, cell-based. As to conditions: T-24, 48 h.
Assay [36] relates to A549. Put plainly: Cytotoxicity against human A549 cells assessed as inhibition fraction treated at 2:1 compound to GEM ratio after 48 hrs by SRB assay in presence of GEM. The class given is functional.
In assay [37] the test system is A549. Put plainly: Cytotoxicity against human A549 cells assessed as inhibition fraction treated at 5:1 compound to GEM ratio after 48 hrs by SRB assay in presence of GEM. In kind it is functional.
In assay [38] the test system is A549. The assay can be described thus: Cytotoxicity against human A549 cells assessed as inhibition fraction treated at sequential combination LA + compound sequent. compound for 24 hrs, LA + compound for 24 hrs additional, total 48 hrs 2:1 and 5:1 compound to GEM ratio after 48 hrs by SRB assay in presence of GEM. In kind it is functional.
Assay [39] deals with A549. The assay can be described thus: Cytotoxicity against human A549 cells assessed as dose reduction index ratio treated at simultaneous combination at 0.8 fraction inhibition after 48 hrs by SRB assay in presence of alpha-lipoic acid. The class given is functional.
Assay [40] concerns A549. The assay can be described thus: Cytotoxicity against human A549 cells assessed as dose reduction index ratio treated at sequential combination at 5:1 compound to GEM ratio after 48 hrs by SRB assay in presence of GEM. The class given is functional.
The subject of assay [41] is A549. The assay can be described thus: Cytotoxicity against human A549 cells assessed as dose reduction index ratio treated at sequential combination at 2:1 compound to GEM ratio after 48 hrs by SRB assay in presence of GEM. In kind it is functional.
In assay [42] the test system is A549. Put plainly: Induction of H2O2 level in human A549 cells at 1 uM after 5 mins by flow cytometry. The class given is functional, cell-based.

Take `Nc1ccn([C@@H]2O[C@H](COC(=O)CCCC[C@@H]3CCSS3)[C@@H](O)C2(F)F)c(=O)n1`: the inhibition result with MRC5 [1], in the assay on T-24 [4] and in the assay with A549 [7] was “Dose-dependent effect” in each case. Further, the IC50 (in general, the concentration that gives 50% inhibition) is 5 nM with MRC5 [1], 5.3 nM in [3] and < 4.4 nM in the assay on A549 [7]. The values for the Ratio with T-24 [2], in the assay on MRC5 [5] and with A549 [8] were 1.3, 1.24 and 1.54, respectively. The result in the assay on A549 [6] was Active.
For the compound `Nc1ccn([C@@H]2O[C@H](CO)[C@@H](O)C2(F)F)c(=O)n1` [GEMCITABINE], the concentration for half-maximal inhibition (IC50) in the assay on A549 [9] is 3.9 nM; in the assay on MRC5 [1], 6.3 nM; in the assay on MRC5 [14], 6.8 nM; with A549 [15], 29 nM; in [3] it was 6.9 nM; in assay [16], < 3.9 nM. The IC50 in the assay on MRC5 [18] is < 3.9 nM; in the assay with MRC5 [21], 21.6 nM; in assay [22], 17 nM; in the assay on A549 [28], > 1000 nM; with A549 [29] it was < 3.9 nM; in assay [32], 18 nM. For the same compound, the IC50 in the assay with MRC5 [33] was < 3.9 nM; in the assay with A549 [7], 6.8 nM; in assay [35] it was < 3.9 nM. In addition, the Inhibition_index was 1.67 in the assay with A549 [10], 4.22 in the assay with A549 [11], 1.71 in the assay with A549 [12] and 5.76 in the assay on A549 [23]. Moreover, the inhibition result with MRC5 [1], with T-24 [4] and in the assay with A549 [7] was “Dose-dependent effect” throughout. For the same compound, the CI is on record as 2.73 with MRC5 [13]; 2.06 in the assay with MRC5 [17]; <1 in the assay on A549 [20]; >1 in the assay with A549 [25]; 7.88 with MRC5 [27]; 8.15 in the assay with MRC5 [30]. For the same compound, the CI with A549 [34] was >1. Moreover, in the assay with A549 [19], the result was inactive. Moreover, the figures for the Ratio with A549 [24], with A549 [26] and in the assay on A549 [31] were 0.1, 0.65 and 0.6, respectively.
Consider `O=C(O)CCCCC1CCSS1` (stereo not drawn) [LIPOIC ACID, ALPHA], for which the inhibition entry in the assay on MRC5 [1], in the assay with T-24 [4] and with A549 [7] was “Dose-dependent effect” each time. The IC50 (in the assay on MRC5 [1]; in assay [3]; in the assay with A549 [7]) was > 100000 nM throughout. For the same compound, the results for the Ratio in the assay on A549 [36], in the assay with A549 [37] and in the assay on A549 [38] were 0.8, 0.9 and 0.85, respectively. For the same compound, the Inhibition_index in the assay with A549 [39] is 1572.29; in the assay on A549 [40], 488.47; in the assay with A549 [41], 1243.87. The outcome in the assay on A549 [42] was Active.
